Test results taken from publication doi:10.1101/2025.06.22.660908v1 (biorxiv, 2025).

Assays:
hERG = hERG (Homo sapiens, UniProt Q12809, species not given); test: hERG inhibition; type: cell-based
Recombinant human TREM2 = molecular target: T1, Recombinant human TREM2 (Homo sapiens, UniProt Q9NZC2); test: microscale thermophoresis; type: binding
T1 sequence (Q9NZC2 19-174 limits assumed): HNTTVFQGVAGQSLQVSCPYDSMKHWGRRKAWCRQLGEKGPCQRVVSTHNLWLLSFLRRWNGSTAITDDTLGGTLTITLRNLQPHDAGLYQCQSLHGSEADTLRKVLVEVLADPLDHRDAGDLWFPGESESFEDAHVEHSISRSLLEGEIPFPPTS

hERG, sequence (Q12809 whole entry): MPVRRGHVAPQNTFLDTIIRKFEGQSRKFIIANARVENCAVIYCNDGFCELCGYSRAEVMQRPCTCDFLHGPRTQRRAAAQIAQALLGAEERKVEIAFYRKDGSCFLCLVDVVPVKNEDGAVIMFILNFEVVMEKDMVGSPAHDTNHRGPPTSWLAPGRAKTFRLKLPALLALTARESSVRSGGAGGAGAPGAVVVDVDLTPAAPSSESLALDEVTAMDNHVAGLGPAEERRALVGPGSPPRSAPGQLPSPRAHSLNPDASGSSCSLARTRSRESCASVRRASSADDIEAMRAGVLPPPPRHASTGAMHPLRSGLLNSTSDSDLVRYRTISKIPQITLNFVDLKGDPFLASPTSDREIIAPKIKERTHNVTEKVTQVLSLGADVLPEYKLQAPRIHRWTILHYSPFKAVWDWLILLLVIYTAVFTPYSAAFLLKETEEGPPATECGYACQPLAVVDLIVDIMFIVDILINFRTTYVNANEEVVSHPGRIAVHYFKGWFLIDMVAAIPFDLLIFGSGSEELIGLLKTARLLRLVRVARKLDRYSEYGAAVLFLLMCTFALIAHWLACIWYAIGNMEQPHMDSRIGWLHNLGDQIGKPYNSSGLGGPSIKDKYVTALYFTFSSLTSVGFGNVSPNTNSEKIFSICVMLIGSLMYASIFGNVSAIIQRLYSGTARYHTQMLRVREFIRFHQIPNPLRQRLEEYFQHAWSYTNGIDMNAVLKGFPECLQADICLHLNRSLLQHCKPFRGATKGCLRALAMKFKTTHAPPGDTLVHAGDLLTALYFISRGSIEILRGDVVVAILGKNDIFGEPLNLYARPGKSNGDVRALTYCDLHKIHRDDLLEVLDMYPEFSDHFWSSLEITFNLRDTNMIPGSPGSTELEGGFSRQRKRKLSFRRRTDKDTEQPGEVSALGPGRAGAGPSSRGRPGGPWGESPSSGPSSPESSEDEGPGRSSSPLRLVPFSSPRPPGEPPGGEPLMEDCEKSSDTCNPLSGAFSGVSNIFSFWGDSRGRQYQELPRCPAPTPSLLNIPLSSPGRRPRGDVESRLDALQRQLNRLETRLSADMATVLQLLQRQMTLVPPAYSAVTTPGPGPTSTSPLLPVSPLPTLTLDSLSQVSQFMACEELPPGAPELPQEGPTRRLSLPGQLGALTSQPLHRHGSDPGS

Kd (Recombinant human TREM2) [µM] | SMILES | IC50 (hERG) [µM]
71.4 ± 4.06 | Cc1nc2cc(C3=CC(c4cnn(C)c4)OCC3)nc(-c3ccc(Cl)cc3F)c2nc1C (stereo not drawn) [C1] | > 100
– | Cc1nc2cc([C@H]3CCO[C@@H](c4cnn(C)c4)C3)nc(-c3ccc(Cl)cc3F)c2nc1C [VG-3927] | > 100
